Data: patent US6645283B1, “Anthrapyridone compounds, water-based magenta ink composition, and method of ink-jet printing” (Nippon Kayaku Kabushiki Kaisha, priority 1998, dated 2003)

Legend:
Type in all cases: physicochemical
[1] = Solubility in water of the dyestuff
Experimental: (5) The wet cake obtained in above (4)was added in 1500 parts of methanol, followed by heating at 60-65° C. and stirring for 1 hr. The crystal was filtered to separate, washed with methanol and dried to obtain 42.0 parts of the compound of No.2 as a red crystal. λmax:523 nm (in water, the ammonium salt); solubility in water:100 g/l or above.
(2) The wet cake obtained in this (1) was desalted as in Example 1(5) to obtain 35.0 parts of the compound of No.5 as a red crystal. λmax:522 nm (in water, the ammonium salt); solubility in water:100 g/l or more.
(2) To the reaction solution of the above (1) was added 4.7 parts of the compound of Formula (5) (R1=CH3, R2=H) obtained as in Example 1 (1) and 1(2), followed by raising the temperature and dropping 10% aqueous sodium hydroxide at 60-65° C. to maintain the pH at 4-5 for 1 hr for the reaction. The solution was maintained for 1 hr at pH 6.5-7.0, and filtered to remove a little insoluble matter, to obtain the reaction solution containing the compound of No.15. The reaction solution was diluted with water to obtain 250 parts of the diluted solution, followed by heating at 60-65° C., adding 50 parts of sodium chloride and stirring for about 30 min to deposit crystal. After stirring for 1 hr, the crystal was filtered to separate, washed with 100 parts of 10% aqueous sodium chloride, and dried to obtain 8.9 parts of the sodium salt of the compound of No.15 as a red crystal. λmax:527 nm (in water); solubility in water:100 g/l or more.
The anthrapyridone dyestuff of the present invention is suitable for an ink-jet magenta dyestuff because it has values in hue and brightness close to those of the JNC standard magenta. The dyestuff of the present invention also, when used on a special paper, can provide good light fastness and water fastness. […] Further, the dyestuffs of No.2, No.5 and No.15 obtained in Example 1 to 3 have their water-solubilities of 100 g/l or more under an alkaline condition (pH 8-9) and therefore enable to prepare stable inks for ink-jetting. […]

[2] = Light fastness test of recorded image, carbon arc fade meter, 20 hours; conditions: carbon arc 20 hours; for Light fastness Grade: JIS L-0841 blue scale
Description: (§1) Each water-based ink composition was produced by preparing the liquids which contain the anthrapyridone compounds (dyestuff components) of No.2, No.5 and No.15 respectively and have a composition of Table 2 as shown below, and then filtering through 0.45 μm membrane filter.
(§2) By using an ink-jet printer (Trade name: PICTY80L, made by NEC KK), ink-jet recordings were done on four types of recording sheets: a plain paper (Printer paper A4, TLB5A4S made by Canon KK), a special paper A (Color BJ Paper LC101 made by Canon KK), a special paper B (Coated paper for color image jetting, STX73A4 made by Sharp KK), and a glossy film (Special glossy film, MJA4SP6 made by Seiko-Epson KK).
A carbon arc fade meter (by Suga Testing Machine Co.) was used to irradiate carbon arc on the recorded images for 20 hours. Grade was judged according to JIS L-0841 blue scale. A color difference (ΔE) between before and after the test was measured by the above color determination system.

[3] = Water fastness test of recorded paper, dipped into water, stirred for 2 min, air-dried; conditions: water 2 min; for Water fastness Grade: JIS color fading grey scale
Description: as §1, §2
A recorded paper was dipped into water in a beaker, stirred for 2 min, and air-dried. The change between before and after the test was judged by the JIS color fading grey scale. Alternatively, a color difference (ΔE) between before and after the test was measured by the above color determination system.

[4] = Plain Paper (PP), color difference before/after

solubility in water [1]	Light fastness (ΔE) ([2]; Glossy Film (GF))	Light fastness Grade ([2]; Glossy Film (GF))	Light fastness Grade ([2]; Plain Paper (PP))	Light fastness (ΔE) [2, 4]	Light fastness (ΔE) ([2]; Special Paper A (SA))	Light fastness Grade ([2]; Special Paper A (SA))	Light fastness (ΔE) ([2]; Special Paper B (SB))	Light fastness Grade ([2]; Special Paper B (SB))	Water fastness (ΔE) ([3]; Glossy Film (GF))	Water fastness Grade ([3]; Glossy Film (GF))	Water fastness Grade ([3]; Plain Paper (PP))	Water fastness (ΔE) [3, 4]	Water fastness (ΔE) ([3]; Special Paper A (SA))	Water fastness Grade ([3]; Special Paper A (SA))	Water fastness (ΔE) ([3]; Special Paper B (SB))	Water fastness Grade ([3]; Special Paper B (SB))	Compound
≥ 100 mg/mL	(10.6)	3-4	3-4	(8.7)	(14.1)	3	(12.4)	3	(4.6)	4	3-4	(6.3)	(2.4)	4	(4.5)	4	Cn1c(=O)cc2c3c(c(Nc4cc(Nc5nc(NCC(=O)O)nc(Nc6cc(C(=O)O)cc(C(=O)O)c6)n5)ccc4S(=O)(=O)O)ccc31)C(=O)c1ccccc1-2 [No.5]
≥ 100 mg/mL	(2.8)	4	3-4	(8.0)	(21.3)	2	(8.9)	3-4	(3.8)	4	1	(58.6)	(1.3)	4	(19.3)	2	Cn1c(=O)cc2c3c(c(Nc4cc(Nc5nc(Cl)nc(Nc6cc7c(S(=O)(=O)O)cc(S(=O)(=O)O)cc7cc6S(=O)(=O)O)n5)ccc4S(=O)(=O)O)ccc31)C(=O)c1ccccc1-2 [No.15]
≥ 100 mg/mL	(3.6)	4	4	(3.7)	(11.1)	3	(7.2)	3-4	(3.5)	4	3-4	(8.6)	(2.2)	4	(5.5)	3-4	Cn1c(=O)cc2c3c(c(Nc4cc(Nc5nc(NCCS(=O)(=O)O)nc(Nc6cc(C(=O)O)cc(C(=O)O)c6)n5)ccc4S(=O)(=O)O)ccc31)C(=O)c1ccccc1-2 [No.2]
